# Data published in patent publication US9822117B2, “Pyridoindolobenz[b,d]azepine derivatives and uses thereof” (Daya Drug Discoveries, Inc., priority 2013, dated 2017).
# Legend:
# [1] = system: mechano-allodynia (paw withdrawal threshold); experiment: Sciatic nerve chronic constriction injury (CCI) model of neuropathic pain; type: in vivo, mice
# Description: DDD-028 was evaluated in chronic constriction injury (CCI) model of neuropathic pain in mice as described by Bennett et al., which is incorporated herein in its entirety. Two male CDI mice (weighing 25-30 g at the time of surgery) were used in this study. The hydrochloride salt of DDD-028 was dissolved in distilled water at 0.15 mg/mL and was administered to the mice to the final dose of 1.0 mg/kg (3.5 gmol/kg) for oral administration (via gavage) or 0.3 mg/kg (1.2 gmol/kg) for intrathecal administration (injection) at peak mechano-allodynia. Baseline PWT measurements (pre-surgery) of the left-hind paw of each animal were taken prior to sciatic nerve ligation. The mice were then anesthetized with 3% isoflurane/100% O2 inhalation, and maintained on 2% isoflurane/100% O2 for the duration of surgery. The left thigh was shaved, scrubbed with Nolvasan, and a small incision (1-1.5 cm in length) was made in the middle of the lateral aspect of the left thigh to expose the sciatic nerve. The nerve was loosely ligated around the entire circumference of the nerve at three distinct sites (spaced 1 mm apart) using silk sutures. The surgical site was closed with a single muscle suture and a skin clip. Peak mechano-allodynia generally develops 7 […]. After 7 days post-surgery, Paw Withdrawal Threshold (PWT, g) measurements were taken for each animal to determine the extent of mechanical allodynia. PWT's were measured at 15 min, 30 min, 60 min, 120 min, and 180 min following administration of the drugs or vehicle. […] DDD-028 had no effect on PWT in contralateral paws.
# [2] = system: mechanical allodynia (percent weight distribution of left hind paw); experiment: Complete Freund's Adjuvant (CFA)-induced model of inflammatory pain; type: in vivo; conditions: rats
# Description: DDD-028 was evaluated in Complete Freund's Adjuvant (CFA)-induced model of inflammatory pain in rats as described by Stein et al., which is incorporated herein in its entirety. Fifteen male CD rats were used in this study. The animals were divided into three groups (vehicle, DDD-028, and indomethacin) containing 5 animals in each group. Baseline weight distribution of each animal in the groups was measured taken prior to CFA administration. Three readings were taken for each paw in each animal. Each reading was take over 3 seconds. Animals were lifted or the paws adjusted between each reading to ensure that animals were positioned correctly on the force pads. The percent weight bearing was calculated on the left leg for each reading. The mean of the three readings were then calculated for each animal. Following baseline measurements, the rats were anesthetized using 1-3% isofluorane, and were given subplantar injection of 0.1 mL of CFA into the left hind paw. Percent weight distributions of the left hind paws of each animal in the three groups were measured at 24 hours post-administration to determine the extent of mechanical allodynia. Animals were then weighed, allocated to the treatment group, and administered the test compound, DDD-028, the reference compound, indomethacin, or the vehicle. Weight distributions were measured at 15 min, 30 min, 60 min, and 120 min following administration of the drugs or vehicle.
# Sigma σ2 receptor = Sigma σ2 receptor (Homo sapiens, UniProt Q5BJF2); experiment: Receptor binding, σ2
# [3] = system: mechanical allodynia (paw withdrawal threshold); experiment: Spinal nerve ligation (SNL) model of neuropathic pain; type: in vivo, rats
# Description: DDD-028 was evaluated in spinal nerve ligation (SNL) model of neuropathic pain in rats as described by Kim et al., which is incorporated herein in its entirety. DDD-028 was prepared as a suspension (1.0 mg/mL) in 5% PEG/5% Tween-80/90% saline; and pregabalin (reference compound, positive control) was prepared as a solution in normal saline (7.9 mg/mL). Both compounds were administered to the animals via oral gavage to a final dose of 5.0 mg/kg (17.4 gmol/kg) for DDD-028; and 39.0 mg/kg (250.2 gmol/kg) for pregabalin. Control animals received the vehicle (5% PEG/5% Tween-80/90% saline). Mechanical allodynia was measured by the up and down method using calibrated von Frey filaments (Linton Instruments). Eighteen male CD rats were used in this study. The animals were divided into three groups (vehicle, DDD-028, and pregabalin) containing 6 animals in each group. Baseline PWT measurements (pre-surgery) of the left-hind paw of each animal in the group were taken prior to spinal nerve ligation. Thereafter, the rats were anesthetized using 1-3% isofluorane, and the L5 spinal nerve was isolated and ligated tightly using silk thread. Peak mechano-allodynia generally develops by day 7 following surgery. After 7 days post-surgery, PWT measurements were taken for each animal to determine the extent of mechanical allodynia. Animals were then weighed, allocated to the treatment group, and administered the test compound, DDD-028, the reference compound, pregabalin, or the vehicle. PWT's were measured at 15 min, 30 min, 60 min, 120 min, and 180 min following administration of the drugs or vehicle.
# Sigma σ2 receptor, sequence (Q5BJF2 whole entry): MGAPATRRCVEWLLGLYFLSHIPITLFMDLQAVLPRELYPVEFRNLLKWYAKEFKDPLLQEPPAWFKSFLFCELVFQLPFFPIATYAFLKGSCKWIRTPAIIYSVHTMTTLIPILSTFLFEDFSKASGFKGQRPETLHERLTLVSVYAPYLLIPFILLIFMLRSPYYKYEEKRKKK
structure (smiles),measurement,setting,value
"CC(C)C[C@H](CN)CC(=O)O [pregabalin, reference compound]",adverse effects,"[1]; as printed in Example 5 (CCI), 1-3 hours post-administration",mild sedation
"COc1ccc2c(c1)c(CC(=O)O)c(C)n2C(=O)c1ccc(Cl)cc1 [indomethacin, reference compound]",adverse effects,[2]; 2 hours post-administration,mild sedation
CN1CCc2c(c3cccc4c3n2CCc2ccccc2-4)C1 [Compound 13],Ki,Sigma σ2 receptor,312 nM
same,effect on PWT in contralateral paws,"[1]; mice, CCI, 1.0 mg/kg oral or 0.3 mg/kg intrathecal",no effect
same,time of maximal effect on mechano-allodynia,"[1]; mice, CCI, hydrochloride salt, 1.0 mg/kg oral or 0.3 mg/kg intrathecal",≤ 30 min
same,adverse effects,"[3]; rat, in vivo, po, 5 mg/kg",No adverse effects were evident
same,time of maximal anti-nociceptive effect,"[3]; rats, SNL, 5.0 mg/kg oral",about 60 minutes
same,potency relative to pregabalin,"[3]; rats, SNL, DDD-028 5.0 mg/kg vs pregabalin […], oral",about 5 fold
same,adverse effects,[2]; oral,No adverse effects were evident
same,potency relative to indomethacin,[2]; oral,about 5 fold
same,time of maximal anti-nociceptive effect,[2]; oral,about 60 minutes
